Like-named read-outs stand apart in the source and are kept apart here.
Target: T1, Androgen Receptor (AR) (Homo sapiens, UniProt P10275)
T1 sequence (P10275 1-920): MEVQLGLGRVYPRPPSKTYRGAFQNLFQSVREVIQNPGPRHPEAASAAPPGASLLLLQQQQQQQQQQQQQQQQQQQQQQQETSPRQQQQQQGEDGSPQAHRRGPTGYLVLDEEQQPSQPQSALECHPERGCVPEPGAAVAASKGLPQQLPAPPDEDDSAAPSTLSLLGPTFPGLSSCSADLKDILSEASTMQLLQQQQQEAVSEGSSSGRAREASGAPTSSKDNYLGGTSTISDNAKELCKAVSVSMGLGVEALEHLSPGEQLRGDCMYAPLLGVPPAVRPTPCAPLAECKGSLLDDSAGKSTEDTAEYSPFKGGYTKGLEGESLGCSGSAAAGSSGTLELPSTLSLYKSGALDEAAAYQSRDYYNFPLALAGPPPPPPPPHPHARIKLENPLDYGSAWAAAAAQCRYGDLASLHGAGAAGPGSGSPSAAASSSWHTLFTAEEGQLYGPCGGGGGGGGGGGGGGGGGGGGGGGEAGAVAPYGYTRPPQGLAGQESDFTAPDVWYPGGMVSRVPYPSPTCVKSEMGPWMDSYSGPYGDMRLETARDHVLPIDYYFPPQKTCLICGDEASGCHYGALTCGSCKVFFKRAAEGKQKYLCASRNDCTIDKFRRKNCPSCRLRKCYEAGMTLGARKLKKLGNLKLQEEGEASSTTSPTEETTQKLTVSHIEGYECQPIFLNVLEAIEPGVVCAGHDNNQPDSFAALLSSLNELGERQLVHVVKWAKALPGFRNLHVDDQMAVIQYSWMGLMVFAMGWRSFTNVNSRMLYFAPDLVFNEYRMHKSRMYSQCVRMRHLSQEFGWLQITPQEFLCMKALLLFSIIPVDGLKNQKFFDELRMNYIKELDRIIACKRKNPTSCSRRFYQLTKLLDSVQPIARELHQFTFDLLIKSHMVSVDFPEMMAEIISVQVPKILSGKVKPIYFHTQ
Assay: Measurement of AR protein degradation in VCaP cells by Western blotting
Format: cell-based
Design: endogenous in cells; host or cells: VCaP
Details: read-out: AR degradation in VCaP cells (%)
Procedure: The amount of AR protein present in LNCaP or VCaP cells was measured after treating them with the synthesized compound. The amount of AR protein was measured using Western blotting. The protocol for the experiments using LNCaP or VCaP cells was as follows.
[Culture] LNCaP cells were resuspended in RPMI1640 medium + HEPES (Hyclone, SH30255.01), 10% FBS (Hyclone, SV30207.02), and 1% Penicillin-streptomycin (Welgene, LS 202-02). 3 x 10^5 cells/mL were seeded in 12-well plates (1 mL per well) and cultured for 3 days. VCaP cells were resuspended in IMDM MEDIUM (Hyclone, SH30228.01), 20% FBS (Hyclone, SV30207.02), and 1% Penicillin-streptomycin (Welgene, LS 202-02), seeded at 9 x 10^5/mL in 1 mL per 12-well plate, and cultured for 3 days.
[Compound Treatment] 10 µL of 100x stock (e.g., 0.1, 1, 10 µM) compound solution at the final compound treatment concentration (e.g., 0.001, 0.01, 0.1 µM) was added to each well in 1 mL media, and cells were harvested after 20 hours. For DC50 measurement, 100x stock (0.01, 0.1, 1, 10, 100, 1000 µM) compound solutions at the final compound treatment concentration (0.0001, 0.001, 0.01, 0.1, 1, 10 µM) were used.
[Cell lysis] The cell pellet was suspended using 1% SDS lysis buffer (50 mM Tris, 1 mM EDTA, 1% SDS, pH 8.0, 0.5 mM PMSF, 1x Protease/Phosphatase inhibitor Cocktail (Cell Signaling Technology, 5872S)), and sonication (70% AMP, 10 cycles (30 sec ON/59 sec OFF)) was performed. After centrifugation at 4°C and 20,000 g for 20 minutes, the cell lysate was obtained and transferred to a new tube.
[Protein Quantification] A BCA protein assay (SMART™ BCA Protein Assay Kit, iNtRON Biotechnology, 21071) was performed using a 96-well microplate. 5 µL of cell lysate and 5 µL of 1% SDS lysis buffer were added to each well of the 96-well plate, followed by an additional 200 µL of BCA reagent (Reagent A: Reagent B = 50:1). The wells were incubated at 37°C for 30 minutes and cooled to room temperature for 10 minutes. After shaking for 10 seconds, the absorbance was measured at a wavelength of 562 nm. The unknown protein concentration was determined using a BSA standard curve (0, 0.125, 0.25, 0.5, 1, 2 mg/mL). Western blotting samples were prepared by mixing cell lysate, 1% SDS lysis buffer, 4x NuPAGE™ LDS Sample buffer (Invitrogen, NP0008), and 10X NuPAGE™ Sample Reducing Agent (Invitrogen, NP0009) and boiling at 70°C for 10 minutes.
[Electrophoresis] 10 µg of protein sample was loaded into each well of a NuPAGE™ 4 to 12%, Bis-Tris, 1.0 mm Mini Protein Gel, 15-well, 17-well, or 26-well (Invitrogen, NP0323BOX, NP0329BOX, or WG1403BOX) and electrophoresed for 40 minutes using NuPAGE™MES SDS Running Buffer (Invitrogen, NP0002) at 200 V (constant V).
[Transfer] Transfer was performed for 15 or 18 minutes using the electrophoresed gel and the Trans-Blot® Turbo™ Transfer Starter System (Bio-RAD, #17001918, Mini Nitrocellulose) at 1.3 A (constant A) and 25 V (limit V). To confirm protein transfer, 15 mL of Ponceau S solution (Sigma, P7170-1L) was used to stain for 1 minute, and then washed to check the degree of transfer.
[Blocking] The membrane for AR and GAPDH detection was blocked with 5% skim milk/0.2% TBST (Skim milk: BD, 232100/ 20X TBS: Biosesang, TR2008-100-00/ 10% Tween 20 Solution: Bio-RAD, #161-0781) for 45 minutes.
[Antibodies and Detection] Primary AR antibody (Androgen Receptor: CST, 5153S) was mixed with 5% skim milk/0.2% TBST at a ratio of 1:1,000 and reacted at room temperature for 3 hours or at 4°C overnight. Primary GAPDH antibody (CST, 2118S) was mixed with 5% skim milk/0.2% TBST at a ratio of 1:2,000 and reacted at room temperature for 3 hours or at 4°C overnight. Afterwards, TBST (0.2% Tween 20) was used for washing three times every 5 minutes. Secondary antibody to AR antibody, Anti-rabbit IgG, HRP-linked Antibody (CST, 7074S), was mixed with 5% skim milk/0.2% TBST at a ratio of 1:5,000 and reacted at room temperature for 45 minutes. […]

[1] = 10 nM compound, 20 hours, VCaP cells
[2] = 100 nM compound, 20 hours, VCaP cells

Dmax at 0.01 µM [1] [%]	Dmax at 0.1 µM [2] [%]	SMILES	Dmax at 0.01 µM (VCaP, 20 h) [%]	Dmax at 0.1 µM (VCaP, 20 h) [%]
95	100	COc1cc(N2CCC(C(=O)Nc3ccc(OC4CCN(CC5CCN(c6ccc(NC7CCC(=O)NC7=O)cc6F)CC5)CC4)cn3)CC2)ccc1C#N (centres unmarked) [Example 13, 1-(4-cyano-3-methoxyphenyl)-N-(5-((1-((1-(4-((2,6-dioxopiperidin-3-yl)amino)-2-fluorophenyl)piperidin-4-yl)methyl)piperidin-4-yl)oxy)pyridin-2-yl)piperidine-4-carboxamide]		
99	100	COc1cc(N2CCC(C(=O)Nc3ccc(OC4CCN(CC5CCN(c6ccc(NC7CCC(=O)NC7=O)cc6F)CC5)CC4)nn3)CC2)ccc1C#N (centres unmarked) [Example 16, 1-(4-cyano-3-methoxyphenyl)-N-(6-((1-((1-(4-((2,6-dioxopiperidin-3-yl)amino)-2-fluorophenyl)piperidin-4-yl)methyl)piperidin-4-yl)oxy)pyridazin-3-yl)piperidine-4-carboxamide]		
		N#Cc1ccc(N2CCC(C(=O)Nc3ccc(OC4CCN(CC5CCN(c6ccc(NC7CCC(=O)NC7=O)cc6F)CC5)CC4)cn3)CC2)c(F)c1Cl (centres unmarked) [Example 12, 1-(3-chloro-4-cyano-2-fluorophenyl)-N-(5-((1-((1-(4-((2,6-dioxopiperidin-3-yl)amino)-2-fluorophenyl)piperidin-4-yl)methyl)piperidin-4-yl)oxy)pyridin-2-yl)piperidine-4-carboxamide]	94	98
		N#Cc1ccc(N2CCC(C(=O)Nc3ccc(OC4CCN(CC5CCN(c6ccc(N[C@@H]7CCC(=O)NC7=O)cc6F)CC5)CC4)cn3)CC2)cc1C(F)(F)F [Example 3, (R)-1-(4-cyano-3-(trifluoromethyl)phenyl)-N-(5-((1-((1-(4-((2,6-dioxopiperidin-3-yl)amino)-2-fluorophenyl)piperidin-4-yl)methyl)piperidin-4-yl)oxy)pyridin-2-yl)piperidine-4-carboxamide]	72	96
